From patent US8394578B2, “Method of forming resist pattern and negative tone-development resist composition” (Tokyo Ohka Kogyo Co., Ltd., priority 2010, dated 2013)

Experiment: Solubility in organic solvent (Test Example 1)
Type: physicochemical
Conditions: monomer, stirred for 1 hour; for degree of dissolution in MEK: 1 g added to MEK at 25° C.; for degree of dissolution in PGME: 1 g added to PGME at 25° C.; for degree of dissolution in PGMEA: 1 g added to PGMEA at 25° C.; for degree of dissolution in Butyl acetate: 1 g added to butyl acetate at 25° C.
Text: Among the monomers used in Polymer Synthesis Examples 1 to 4 and Comparative Polymer Synthesis Examples 1 to 4, with respect to compounds (m0-1) and (m0-2) which are classified as a structural unit (a0), compounds (m2-1) and (m2-2) which are classified as a structural unit (a2), a compound in which the —S(═O)2— portion of the compound (m0-1) has been replaced with —C(═O)— (a compound in which the cyclic group within the compound (m0-1) has been replaced with the cyclic group of the compound (m2-1), hereafter referred to as compound (m2-3)), and polymeric compounds 1, 1′ and 4′, the solubility in an organic solvent was evaluated as follows.
1 g of each compound was added to an organic solvent indicated in Table 1 at 25° C., and stirred for 1 hour. After the stirring, the degree of dissolution of each compound in each organic solvent was evaluated with the following criteria. […]

| SMILES | degree of dissolution in MEK | degree of dissolution in PGME | degree of dissolution in PGMEA | degree of dissolution in Butyl acetate |
| --- | --- | --- | --- | --- |
| C=C(C)C(=O)OCC(=O)OC1C2CC3C1OS(=O)(=O)C3C2 (stereo not shown) [Compound (m0-1)] | B (15% by weight or more but less than 40% by weight) | C (7% by weight or more but less than 15% by weight) | C (7% by weight or more but less than 15% by weight) | C (7% by weight or more but less than 15% by weight) |
| C=C(C)C(=O)OC1C2CC3C1OS(=O)(=O)C3C2 (stereo not shown) [Compound (m0-2)] | B (15% by weight or more but less than 40% by weight) | C (7% by weight or more but less than 15% by weight) | C (7% by weight or more but less than 15% by weight) | D (less than 7% by weight) |
| C=C(C)C(=O)OC1C2CC3C(=O)OC1C3C2 (stereo not shown) [Compound (m2-1)] | B (15% by weight or more but less than 40% by weight) | C (7% by weight or more but less than 15% by weight) | B (15% by weight or more but less than 40% by weight) | C (7% by weight or more but less than 15% by weight) |
| C=C(C)C(=O)OC1CCOC1=O (stereo not shown) [Compound (m2-2)] | A (40% by weight or more) | A (40% by weight or more) | A (40% by weight or more) | A (40% by weight or more) |
